“And” between values parts separate entries of the source, which are not always exact repeats. Equal values may be shown once. “Also recorded” adds a separate entry of the source. Where a name gives a salt, the structure may show the parent alone. Read-outs that look alike come from different tables or passages of the source.
Columns and labels:
[1] = target: SARS-CoV-2 M^pro (Severe acute respiratory syndrome coronavirus 2, UniProt P0DTD1); test: biochemical
[2] = tested on: wild type SARS-CoV-2; test: microbe, parasite or virus in culture; format: cell-based; conditions: mean ± sd
[3] = target: SARS-CoV-2 PL^pro (Severe acute respiratory syndrome coronavirus 2, UniProt P0DTD1); test: SARS-CoV-2 PL^pro inhibition assay; format: biochemical; conditions: read-out: inhibition rate against papain-like protease (PL^pro)
[4] = target: SARS-CoV-2 RdRp complex (Severe acute respiratory syndrome coronavirus 2, UniProt P0DTD1); test: biochemical
[5] = tested on: SARS-CoV-2 strain 20SF107; format: in vivo, rhesus macaques
[6] = tested on: SARS-CoV-2; test: Randomized open-label clinical trial in mild/moderate COVID-19 patients, efficacy; format: in vivo
[7] = tested on: Vero E6 cells
[8] = male, rhesus monkey, in vivo
[9] = human, in vivo
[10] = target: cyclophilin A; parameters: method as in PMID 34677780; conditions: cited from earlier work
[11] = tested on: cathepsin L; conditions: read-out: IC50 against cathepsin L; cited from earlier work
[12] = tested on: SARS-CoV-2 spike mediated cell fusion; conditions: at 10 μM; cited from earlier work
[13] = tested on: inflammatory cytokines; conditions: at 2.5 μM; cited from earlier work
[14] = rats, 4 h after oral administration; cited from earlier work
[15] = cited from earlier work; for AUC0-∞: healthy human volunteers
[16] = HIV-infected patients; cited from earlier work
[17] = cited from earlier work
[18] = in vitro; conditions: African green monkey
[19] = twice daily, cited from earlier work
[20] = Lung distribution study in mouse; conditions: male, ICR, po
[21] = Pharmacokinetics in healthy rhesus macaques after nasogastric administration; conditions: 200 mg/kg nasogastric; for Cmax / AUC / MRT / half-life: rhesus monkey, plasma, 200 mg/kg
[22] = log-rank analysis, N = 5, NE = Not Evaluable

Cc1c(O)cccc1C(=O)N[C@@H](CSc1ccccc1)[C@H](O)CN1C[C@H]2CCCC[C@H]2C[C@H]1C(=O)NC(C)(C)C [nelfinavir, Nelfinavir Mesylate]
IC50 ([1]; IC50 against SARS-CoV-2 M^pro): 23 µM and > 20 µM | IC50 ([1]; IC50 against SARS-CoV-2 main protease (M^pro)): 8.26 µM | EC50 ([2]; Severe acute respiratory syndrome coronavirus 2, Vero C1008, Vero E6 cells): 2.93 ± 0.32 µM | EC50 ([2]; Severe acute respiratory syndrome coronavirus 2, Calu-3 cells): 1.86 ± 0.26 µM | inhibition at 100 µM [3]: 33.3 ± 2.47% | IC50 [4]: 112 ± 8.2 µM | body weight change compared with control monkeys ([5]; 200 mg/kg prophylactic, twice daily): not significant | body temperature compared with vehicle control monkeys ([5]; 200 mg/kg prophylactic, twice daily, […]): significantly lower | viral loads in extrapulmonary tissues, e.g. colon and heart, compared with control group ([5]; […], no statistical difference): increasing trends | reduction of viral replication in the lungs ([5]; at necropsy, prophylactic treatment): nearly three orders of magnitude; also recorded: approximately three orders of magnitude | reduction of virus RNA in lung (left lower lobe) compared to vehicle-treated monkeys ([5]; rhesus monkey, in vivo): 2.88 log | viral load in nasal swabs compared with control group ([5]; rhesus monkey, in vivo): Significant reductions; also recorded: significantly reduced; also recorded: significantly lower | viral load in rectal (anal) swabs compared with control group ([5]; rhesus monkey, in vivo): Significant reductions; also recorded: significantly reduced; also recorded: significantly lower | viral load in throat swabs compared with control group ([5]; rhesus monkey, in vivo): without significance | virus RNA in kidney samples ([5]; rhesus monkey, in vivo): could not be detected | proportion of subjects whose respiratory specimens were negative for SARS-CoV-2 RNA ([6]; 7th day of treatment, N = 19): 31.6% | proportion of cases with fever ([6]; 9/19): 47.4% | chest CT results of moderate COVID-19 ([6]; 14th day of treatment): one patient was abnormal and had no clinical significance | proportion of subjects whose respiratory specimens were negative for SARS-CoV-2 RNA ([6]; 14th day of treatment, N = 19): 68.4% | progression to severe or critical pneumonia ([6]; 14th day of treatment, patients with mild COVID-19 (N = 5)): no subjects | TTCR time (time to clinical recovery) ([6]; N = 5, control 11.0 days): 7.0 days | shortening of duration of fever time versus control group ([6]; P = 0.014): 3.8 days | shortening of median time for TTCR ([6]; P = 0.899): 4.0 days | average fever days (duration of fever time) in patients with fever ([6]; control 6.6 ± 4.1 days, P = 0.014): 2.8 days and 2.8 ± 1.6 days | progression of subjects with mild disease to pneumonia ([6]; day 7 of treatment): did not progress to pneumonia | time of TTCR, 25%(95%CI) [6, 22]: 4.0(1.0~ NE) d | time of TTCR, 50%(95%CI) [6, 22]: 7.0(1.0~ NE) d | time to convert to negative throat swab, 25%(95%CI) ([6]; log-rank analysis, N = 19): 5.0(1.0~9.0) d | time to convert to negative throat swab, 50%(95%CI) ([6]; log-rank analysis, N = 19): 9.0(5.0~11.0) d | time to convert to negative throat swab, 75%(95%CI) ([6]; log-rank analysis, N = 19): 12.0(9.0~22.0) d | shortening of duration of viral shedding versus control group ([6]; median, P = 0.055): 5.5 days | median time to convert to negative throat swab of SARS-CoV-2 (duration of viral shedding) ([6]; nelfinavir 1250 mg every 12 h, N = 19, control 14.5 days, P = 0.055): 9.0 days | selectivity index (SI) [7]: 17.59 | plasma concentration in infected relative to healthy rhesus macaques [8]: around 1/6 | trough plasma concentration (Ctrough) [8]: 0.26 µM | plasma concentration at 5 h after dosing (C5h), average ([8]; 200 mg/kg): 0.55 µM | cases of grade 1 adverse events [9]: 15 cases | death of illness [9]: No patients died | grade of adverse events during the trial [9]: all grade 1 | number of patients with grade 1 adverse events [9]: 10 patients | patients with abnormal sitting blood pressure, respiratory rate and pulse [9]: no clinically significant patients | proportion of patients with grade 1 adverse events [9]: 52.6% | Kd [10]: 0.94 µM | IC50 [11]: 18 µM | inhibition of SARS-CoV-2 spike mediated cell fusion [12]: completely inhibit | inhibition of inflammatory cytokines in vitro [13]: successfully inhibit | lung-to-plasma ratio [14]: 3.24 | AUC0-∞ ([15]; dosage of 100 mg): 1250 ± 230 ng·h/mL | AUC0-∞ ([15]; dosage of 800 mg): 22208 ± 6306 ng·h/mL | plasma Ctrough,Morning ([15]; human, 1250 mg BID, ref VIRACEPT FDA Package Insert Reference ID: 3986049): 3.87 µM | Cmax ([15]; human, 1250 mg BID, ref VIRACEPT FDA Package Insert Reference ID: 3986049, read-out: plasma Cmax): 7.04 µM | Cmax in PBMCs relative to plasma [16]: ~ 15 fold | cellular accumulation in PBMCs relative to plasma [16]: 5.30 fold | concentration in the lung epithelial lining fluid versus plasma [17]: comparable to that in plasma | proportion of patients with detectable drug in bronchoalveolar lavage (BAL) fluid [17]: 100% | lung distribution in patients relative to plasma ([17]; human, in vivo): approximately three times as high as that of plasma | CC50 [18]: 51.6 µM | maximum tolerated dosage (MTD) ([19]; adults with solid tumors): 3125 mg | maximum tolerated dosage (MTD) ([19]; liposarcoma, MTD not reached): > 4250 mg | Kp [20]: 2 to 3 | Kp at 0.5 h ([20]; 250 mg/kg): 2.08 ± 0.5 | Kp at 1 h ([20]; 250 mg/kg): 2.35 ± 0.34 | Kp at 3 h ([20]; 250 mg/kg): 2.24 ± 0.59 | Kp at 6 h ([20]; 250 mg/kg): 1.81 ± 0.19 | Kp at 9 h ([20]; 250 mg/kg): 2.33 ± 0.28 | Kp at 0.5 h ([20]; 750 mg/kg): 2.07 ± 0.42 | Kp at 1 h ([20]; 750 mg/kg): 3.11 ± 0.82 | Kp at 3 h ([20]; 750 mg/kg): 2.83 ± 0.33 | Kp at 6 h ([20]; 750 mg/kg): 3.22 ± 0.63 | Kp at 9 h ([20]; 750 mg/kg): 2.61 ± 0.08 | Tpeak ([21]; Monkey 1, healthy): 6.00 h | Tpeak ([21]; Monkey 2, healthy): 4.00 h | Cmax ([21]; oral, average maximum plasma concentration (Cmax), two healthy rhesus macaques): 3.2 µM | AUC ([21]; po, AUCon, Monkey 1, healthy): 28.4 µM·h | AUC ([21]; po, AUCon, Monkey 2, healthy): 10.6 µM·h | AUC ([21]; po, AUCtot, Monkey 1, healthy): 28.4 µM·h | AUC ([21]; po, AUCtot, Monkey 2, healthy): 10.7 µM·h | Cmax ([21]; po, Cmax, Monkey 1, healthy): 5.33 µM | Cmax ([21]; po, Cmax, Monkey 2, healthy): 1.07 µM | MRT ([21]; po, Monkey 1, healthy): 7.25 h | MRT ([21]; po, Monkey 2, healthy): 12 h | half-life ([21]; po, t1/2, Monkey 1, healthy): 4.46 h | half-life ([21]; po, t1/2, Monkey 2, healthy): 6.92 h | time at which Cmax was achieved after dosing ([21]; two healthy rhesus macaques): 5 h
